Patent US20110124564A1, “NUCLEOLIN-BINDING PEPTIDES, NUCLEOLIN- BINDING LYTIC PEPTIDES, FUSION CONSTRUCTS AND METHODS OF MAKING AND USING SAME” (ESPERANCE PHARMACEUTICALS, INC., published 2011)
Read-outs that look alike come from different tables or passages of the source. Residues, ends and D or L forms follow the SMILES beside them.

Legend:
[1] = test system: MDA-MB-435S breast cancer cells; assay type: cell-based, human; conditions: 6 h
Description: EP-301 and EP-302 were analyzed for anti-cancer activity in vitro in a time course experiment against MDA-MB-435S breast cancer cells. EP-301 and EP-302 were freshly dissolved in saline and added into cancer cell seeded multi-well plates at increasing concentrations of 0, 0.001, 0.01, 0.1, 1, 2, 5, 10 and 100 μM. Incubations were conducted for 0.25, 0.5, 1, 2, 4, 6 h or 24 h at 37° C. Cell viability was determined using formazan conversion assays (MTT assays). Controls were treated with USP saline or 0.1% TritonX-100™ as reference for 0 and 100% cell death, respectively. Cytotoxicity was evaluated as an IC50 value derived for EP-301 and EP-302 at each time point.

[2] = test system: MDA-MB-435S breast cancer cells; assay type: cell-based, human; conditions: 4 h
Description: Twelve different fusion constructs were analyzed for anti-cancer activity in vitro against MDA-MB-435S breast cancer cells and for hemolytic activity in vitro to human red blood cells. Fusion constructs of the following sequence were tested:
The peptide conjugates were freshly dissolved in saline and added into cancer cell seeded multi-well plates at increasing concentrations of 0, 0.001, 0.01, 0.1, 1, 2, 5, 10 and 100 μM. Incubations were conducted for 4 h at 37° C. Cell viability was determined using formazan conversion assays (MTT assays). Controls were treated with USP saline or 0.1% TritonX-100™ as reference for 0 and 100% cell death, respectively. Cytotoxicity was evaluated as an IC50 value.

[3] = test system: human red blood cells; test: Hemolytic activity; assay type: cell-based
Description: Hemolytic activity was studied by incubating the fusion constructs with human red blood cells at concentrations of 0.01, 0.1, 1, 10 and 50 μM for 2 hours. Saline and 0.1% Triton served as controls.
Hemolytic activity of the compounds was studied by incubating EP-301 and EP-302 with human red blood cells at concentrations of 0.01, 0.1, 1, 10 and 50 μM for 2 hours.

[4] = test system: HL60 (Acute Myeloid Leukemia); assay type: cell-based, human; conditions: 24 h
Description: (§1) EP-302 was freshly dissolved in saline and added into cancer cell seeded multi-well plates at increasing concentrations of 0, 0.001, 0.01, 0.1, 1, 2, 5, 10 and 100 μM. Incubations were conducted for 6 h or 24 h at 37° C. Cell viability was determined using formazan conversion assays (MTT assays). Controls were treated with USP saline or 0.1% TritonX-100™ as reference for 0 and 100% cell death, respectively. Cytotoxicity was evaluated as an IC50 value derived for EP-302 in each cell line.

[5] = test system: MDA-MB-435S (Breast); assay type: cell-based, human
Description: as §1

[6] = test system: MiaPaCa (Pancreas); assay type: cell-based, human
Description: as §1

[7] = test system: PC-3 (Prostate); assay type: cell-based, human
Description: as §1

[8] = test system: A549 (Lung); assay type: cell-based
Description: as §1

[9] = test system: CHO (Hamster Ovary); assay type: cell-based
Description: as §1

[10] = test system: DU145 (Prostate); assay type: cell-based
Description: as §1

[11] = test system: Daudi (NHL); assay type: cell-based
Description: as §1

[12] = test system: HT 116(Colon); assay type: cell-based
Description: as §1

[13] = test system: HT 29 (Colon); assay type: cell-based; conditions: 6 h
Description: as §1

[14] = test system: K562 (Chronic Myeloid Leukemia); assay type: cell-based; conditions: 24 h
Description: as §1

[15] = test system: LoVo (Colon); assay type: cell-based; conditions: 6 h
Description: as §1

[16] = test system: MCF-10A (normal breast cells); assay type: cell-based; conditions: 24 h
Description: as §1

[17] = test system: MCF-7 (Breast); assay type: cell-based
Description: as §1

[18] = test system: MDA-MB-231 (Breast); assay type: cell-based
Description: as §1

[19] = test system: MV4-11(Acute Myeloid Leukemia); assay type: cell-based; conditions: 24 h
Description: as §1

[20] = test system: NIH-3T3 (mouse fibroblast cells); assay type: cell-based; conditions: 24 h
Description: as §1

[21] = test system: OVCAR-3 (Ovary); assay type: cell-based; conditions: 6 h
Description: as §1

[22] = test system: SKOV-3 (Ovary); assay type: cell-based
Description: as §1

[23] = In vivo tolerability, repeat dose, nude mice; design: species or system mouse; conditions: 5 consecutive days; for Survival [%] Day 1 / Survival [%] Day 2* / Survival [%] Day 3 / Survival [%] Day 4 / Survival [%] Day 5: BalbC/nude mice
Description: Body weight, blood chemistry and blood cell counts were measured. […] Blood parameters for CBC and serum chemistry were normal in treated mice of both groups.

[24] = 5 and 10 mg/kg i.v., female nude mice

With `CC(C)C[C@H](NC(=O)[C@H](CCCNC(=N)N)NC(=O)[C@H](C)NC(=O)[C@H](CO)NC(=O)[C@H](CCCNC(=N)N)NC(=O)[C@H](CCCNC(=N)N)NC(=O)[C@H](CCC(N)=O)NC(=O)[C@H](CC(C)C)NC(=O)[C@H](CCCNC(=N)N)NC(=O)[C@H](C)NC(=O)[C@H](CCCNC(=N)N)NC(=O)[C@H](CCCCN)NC(=O)[C@H](C)NC(=O)[C@H](Cc1ccccc1)NC(=O)[C@H](CCCCN)NC(=O)[C@H](CCCCN)NC(=O)[C@H](C)NC(=O)[C@H](Cc1ccccc1)NC(=O)[C@H](CCCCN)NC(=O)[C@H](C)NC(=O)[C@H](Cc1ccccc1)NC(=O)[C@H](CCCCN)NC(=O)[C@H](CCCCN)NC(=O)[C@H](C)NC(=O)[C@H](Cc1ccccc1)NC(=O)[C@H](CCCCN)NC(=O)[C@H](C)NC(=O)[C@H](Cc1ccccc1)NC(=O)[C@@H](N)CCCCN)C(=O)N[C@@H](CO)C(=O)N[C@@H](C)C(=O)N[C@@H](CCCCN)C(=O)O` [EP-302] (H-KFAKFAKKFAKFAKKFAKRARLQRRSARLSAK-OH) the IC50 [1] was 2.3 µM, the IC50 [2] was 0.9 ± 0.05 µM and the HA50 [3] was “Not hemolytic”. It also gave an IC50 [4] of 0.5 µM, an IC50 ([5]; 6 h) of 1.4 ± 0.09 µM and an IC50 ([5]; 24 h) of 1.7 ± 0.2 µM. For the same compound, the IC50 ([6]; 6 h) was 2.1 ± 0.2 µM, the IC50 ([6]; 24 h) was 1.9 ± 0.1 µM and the IC50 ([7]; 6 h) was 3.3 ± 0.3 µM. The IC50 ([7]; 24 h) was 3.2 ± 0.8 µM, the IC50 ([8]; 6 h) was 4.3 ± 0.6 µM and the IC50 ([8]; 24 h) was 2.4 ± 0.08 µM. For the same compound, the IC50 ([9]; 6 h) was 3.1 ± 0.9 µM, the IC50 ([9]; 24 h) was 3.7 ± 0.2 µM and the IC50 ([10]; 6 h) was 3.1 ± 0.02 µM. It also gave an IC50 ([10]; 24 h) of 5.1 ± 0.1 µM, an IC50 ([11]; 6 h) of 3.2 ± 0.4 µM and an IC50 ([11]; 24 h) of 2.5 ± 0.05 µM. It also gave an IC50 ([12]; 6 h) of 6.7 ± 0.9 µM, an IC50 ([12]; 24 h) of 4.8 ± 1.1 µM and an IC50 [13] of 45.8 ± 0.4 µM. For the same compound, the IC50 [14] was 2.8 µM, the IC50 [15] was 14.1 ± 0.5 µM and the IC50 [16] was 68 µM. The IC50 ([17]; 6 h) was 5.5 ± 0.4 µM, the IC50 ([17]; 24 h) was 6.4 ± 0.9 µM and the IC50 ([18]; 6 h) was 4.6 ± 0.9 µM. It also gave an IC50 ([18]; 24 h) of 3.6 ± 0.4 µM, an IC50 [19] of 0.5 µM and an IC50 [20] of 53 µM. For the same compound, the IC50 [21] was 5.2 ± 0.3 µM, the IC50 ([22]; 6 h) was 5.1 ± 0.2 µM and the IC50 ([22]; 24 h) was 5.2 ± 0.9 µM. The “Survival [%] Day 1” value ([23]; 5 mg/kg i.v.) was 100 (5/5) %, the “Survival [%] Day 2*” value ([23]; 5 mg/kg i.v.) was 100 (5/5) % and the “Survival [%] Day 3” value ([23]; 5 mg/kg i.v.) was 100 (5/5) %. The “Survival [%] Day 4” value ([23]; 5 mg/kg i.v.) was 100 (5/5) %, the “Survival [%] Day 5” value ([23]; 5 mg/kg i.v.) was 100 (5/5) % and the “Survival [%] Day 1” value ([23]; 10 mg/kg i.v.) was 100 (5/5) %. The “Survival [%] Day 2*” value ([23]; 10 mg/kg i.v.) was 100 (5/5) %, the “Survival [%] Day 3” value ([23]; 10 mg/kg i.v.) was 100 (5/5) % and the “Survival [%] Day 4” value ([23]; 10 mg/kg i.v.) was 100 (5/5) %. For the same compound, the “Survival [%] Day 5” value ([23]; 10 mg/kg i.v.) was 100 (5/5) %, the “Blood parameters for CBC and serum chemistry” value [23, 24] was “normal” and the Body weight [23, 24] was “remained stable”. The “Signs of toxicity / tolerability” value [23, 24] was “no signs of toxicity”.
